Results on one compound are retold here after article PMC5218480 (PLoS ONE, 2017).

This experiment concerns MV-4-11 cells. Briefly: Gene expression microarray analysis (Affymetrix PrimeView) and GSEA. As to conditions: ProbeSet 11732370_a_at; LIST D. On the set-up: RFU PODN (11730768_x_at) / Fold change /veh PODN (11730768_x_at) / RFU LINC00158 (11744669_a_at) / Fold change /veh LINC00158 (11744669_a_at) / RFU DUSP10 (11751237_a_at) / Fold change /veh DUSP10 (11751237_a_at) / RFU ID3 (11757404_x_at) / Fold change /veh ID3 (11757404_x_at) / RFU PLEKHG5 (11737974_s_at) / Fold change /veh PLEKHG5 (11737974_s_at) / RFU LRRC4B (11730491_at) / Fold change /veh LRRC4B (11730491_at) / RFU GIMAP4 (11747438_a_at) / Fold change /veh GIMAP4 (11747438_a_at) / RFU KRT8 (11758183_x_at) / Fold change /veh KRT8 (11758183_x_at) / RFU CNN1 (11734310_a_at) / Fold change /veh CNN1 (11734310_a_at) / RFU VPS37D (11726825_at) / Fold change /veh VPS37D (11726825_at) / RFU C10orf10 (11716522_x_at) / Fold change /veh C10orf10 (11716522_x_at) / RFU KIR2DL2 /// KIR2DL4 /// KIR2DL5A /// KIR2DL5B /// KIR2DS1 /// KIR2DS2 /// KIR2DS3 /// KIR2DS4 /// KIR3DL3 /// KIR3DL3 /// KIR3DS1 (11738374_at) / Fold change /veh KIR2DL2 /// KIR2DL4 /// KIR2DL5A /// KIR2DL5B /// KIR2DS1 /// KIR2DS2 /// KIR2DS3 /// KIR2DS4 /// KIR3DL3 /// KIR3DL3 /// KIR3DS1 (11738374_at) / RFU C1QL1 (11718748_at) / Fold change /veh C1QL1 (11718748_at) / RFU TMPRSS4 (11747572_a_at) / Fold change /veh TMPRSS4 (11747572_a_at) / RFU HAMP (11756126_x_at) / Fold change /veh HAMP (11756126_x_at) / RFU RNFT2 (11725882_a_at) / Fold change /veh RNFT2 (11725882_a_at) / RFU NR4A2 (11747474_a_at) / Fold change /veh NR4A2 (11747474_a_at) / RFU ABCC12 (11746883_a_at) / Fold change /veh ABCC12 (11746883_a_at) / RFU TMEM136 (11760407_x_at) / Fold change /veh TMEM136 (11760407_x_at) / RFU CLDN22 /// WWC2 (11732394_at) / Fold change /veh CLDN22 /// WWC2 (11732394_at) / RFU HLA-DPB1 (11760878_x_at) / Fold change /veh HLA-DPB1 (11760878_x_at) / RFU SPINT1 (11716480_a_at) / Fold change /veh SPINT1 (11716480_a_at) / RFU GAP43 (11754022_s_at) / Fold change /veh GAP43 (11754022_s_at) / RFU A4GNT (11735810_at) / Fold change /veh A4GNT (11735810_at) / RFU PRB3 (11715151_x_at) / Fold change /veh PRB3 (11715151_x_at) / RFU TUBB4B (11761932_at) / Fold change /veh TUBB4B (11761932_at) / RFU CAPN14 (11732068_a_at) / Fold change /veh CAPN14 (11732068_a_at) / RFU TMCC2 (11721928_a_at) / Fold change /veh TMCC2 (11721928_a_at) / RFU IRGQ (11745062_a_at) / Fold change /veh IRGQ (11745062_a_at) / RFU FAM174B (11720279_a_at) / Fold change /veh FAM174B (11720279_a_at) / RFU TMPRSS4 (11748680_a_at) / Fold change /veh TMPRSS4 (11748680_a_at) / RFU FAM212B (11763350_a_at) / Fold change /veh FAM212B (11763350_a_at) / RFU PLEKHG5 (11743358_a_at) / Fold change /veh PLEKHG5 (11743358_a_at) / RFU ZSCAN30 (11745921_a_at) / Fold change /veh ZSCAN30 (11745921_a_at) / RFU CMKLR1 (11741424_a_at) / Fold change /veh CMKLR1 (11741424_a_at) / RFU LOC101060620 /// MAPK8IP1 (11723275_at) / Fold change /veh LOC101060620 /// MAPK8IP1 (11723275_at) / RFU SPTSSB (11747773_x_at) / Fold change /veh SPTSSB (11747773_x_at) / RFU PRSS12 (11739890_at) / Fold change /veh PRSS12 (11739890_at) / RFU BIN1 (11741810_x_at) / Fold change /veh BIN1 (11741810_x_at) / RFU WNT11 (11732464_a_at) / Fold change /veh WNT11 (11732464_a_at) / RFU C10orf10 (11716521_a_at) / Fold change /veh C10orf10 (11716521_a_at) / RFU C5orf56 (11738089_at) / Fold change /veh C5orf56 (11738089_at) / RFU CYB561 (11721691_x_at) / Fold change /veh CYB561 (11721691_x_at) / RFU ANKRD19P (11752326_a_at) / Fold change /veh ANKRD19P (11752326_a_at) / RFU OR2T12 /// OR2T33 /// OR2T8 (11738714_s_at) / Fold change /veh OR2T12 /// OR2T33 /// OR2T8 (11738714_s_at) / RFU VCAN (11748164_a_at) / Fold change /veh VCAN (11748164_a_at) / RFU JSRP1 (11732532_at) / Fold change /veh JSRP1 (11732532_at) / RFU KRTAP10-11 (11738290_x_at) / Fold change /veh KRTAP10-11 (11738290_x_at) / RFU MYO3A (11730013_a_at) / Fold change /veh MYO3A (11730013_a_at) / RFU EBF3 (11725865_a_at) / Fold change /veh EBF3 (11725865_a_at) / RFU CAMK2N1 (11719241_x_at) / Fold change /veh CAMK2N1 (11719241_x_at) / RFU C5orf56 (11738088_a_at) / Fold change /veh C5orf56 (11738088_a_at) / RFU OLFML3 (11715873_a_at) / Fold change /veh OLFML3 (11715873_a_at) / RFU LOC100653217 /// NTM (11731650_a_at) / Fold change /veh LOC100653217 /// NTM (11731650_a_at) / RFU MAPK11 (11762145_a_at) / Fold change /veh MAPK11 (11762145_a_at) / RFU FIZ1 (11724087_x_at) / Fold change /veh FIZ1 (11724087_x_at) / RFU OASL (11726364_x_at) / Fold change /veh OASL (11726364_x_at) / RFU SOX15 (11748057_x_at) / Fold change /veh SOX15 (11748057_x_at) / RFU CD79A (11719716_a_at) / Fold change /veh CD79A (11719716_a_at) / RFU HIST1H1D (11736915_at) / Fold change /veh HIST1H1D (11736915_at) / RFU CASKIN2 (11723855_a_at) / Fold change /veh CASKIN2 (11723855_a_at) / RFU LOC730098 (11760151_x_at) / Fold change /veh LOC730098 (11760151_x_at) / RFU OR4N2 (11742367_at) / Fold change /veh OR4N2 (11742367_at) / RFU PRRT2 (11749266_a_at) / Fold change /veh PRRT2 (11749266_a_at) / RFU SNX32 (11753110_a_at) / Fold change /veh SNX32 (11753110_a_at) / RFU CDHR5 (11726645_a_at) / Fold change /veh CDHR5 (11726645_a_at) / RFU RCAN1 (11760418_a_at) / Fold change /veh RCAN1 (11760418_a_at) / RFU FAM167A (11723789_a_at) / Fold change /veh FAM167A (11723789_a_at) / RFU FAM26E (11764081_at) / Fold change /veh FAM26E (11764081_at) / RFU ISYNA1 (11749810_s_at) / Fold change /veh ISYNA1 (11749810_s_at) / RFU ACY1 (11761880_at) / Fold change /veh ACY1 (11761880_at) / RFU 11764098_at / Fold change /veh 11764098_at / RFU SAMD14 (11745864_x_at) / Fold change /veh SAMD14 (11745864_x_at) / RFU NPB (11741838_a_at) / Fold change /veh NPB (11741838_a_at) / RFU TMPRSS6 (11731388_a_at) / Fold change /veh TMPRSS6 (11731388_a_at) / RFU KRTAP10-2 (11738614_at) / Fold change /veh KRTAP10-2 (11738614_at) / RFU ARHGAP8 /// PRR5-ARHGAP8 (11727945_x_at) / Fold change /veh ARHGAP8 /// PRR5-ARHGAP8 (11727945_x_at) / RFU KRTAP5-7 /// NADSYN1 (11734609_at) / Fold change /veh KRTAP5-7 /// NADSYN1 (11734609_at) / RFU RASL12 (11751679_a_at) / Fold change /veh RASL12 (11751679_a_at) / RFU CDKN2B (11736163_a_at) / Fold change /veh CDKN2B (11736163_a_at) / RFU PRF1 (11729649_at) / Fold change /veh PRF1 (11729649_at) / RFU, ZNF638 /// ZNF638-IT1 / Fold change vs veh, ZNF638 /// ZNF638-IT1 / RFU, PANK3 / Fold change vs veh, PANK3 / RFU, SH3YL1 / Fold change vs veh, SH3YL1 / RFU, ZEB2 / Fold change vs veh, ZEB2 / RFU, NRIP1 / Fold change vs veh, NRIP1 / RFU, PTTG1IP / Fold change vs veh, PTTG1IP / RFU, CAPN2 / Fold change vs veh, CAPN2 / RFU, MED14 / Fold change vs veh, MED14 / RFU, SNORA58 / Fold change vs veh, SNORA58 / RFU, C1orf63 / Fold change vs veh, C1orf63 / RFU, LRRFIP1 / Fold change vs veh, LRRFIP1 / RFU, NDUFAF7 / Fold change vs veh, NDUFAF7 / RFU, SLC12A2 / Fold change vs veh, SLC12A2 / RFU, IBTK / Fold change vs veh, IBTK / RFU, ESF1 / Fold change vs veh, ESF1 / Fold change vs veh, TMEM50B / RFU, TAOK1 / Fold change vs veh, TAOK1 / RFU, ACBD3 / Fold change vs veh, ACBD3 / RFU, TMA16 / Fold change vs veh, TMA16 / RFU, RWDD3 / Fold change vs veh, RWDD3 / RFU, BCAT1 / Fold change vs veh, BCAT1 / RFU, EDEM3 / Fold change vs veh, EDEM3 / RFU, TMEM33 / Fold change vs veh, TMEM33 / RFU, WDR75 / Fold change vs veh, WDR75 / RFU, AHCTF1 / Fold change vs veh, AHCTF1 / RFU, TFRC / Fold change vs veh, TFRC / RFU, ZDHHC17 / Fold change vs veh, ZDHHC17 / RFU, NOM1 / Fold change vs veh, NOM1 / RFU, ARL8B / Fold change vs veh, ARL8B / RFU, ZBTB11 / Fold change vs veh, ZBTB11 / RFU, TAMM41 / Fold change vs veh, TAMM41 / RFU, KIAA1704 /// LOC100996395 / Fold change vs veh, KIAA1704 /// LOC100996395 / RFU, ING1 / Fold change vs veh, ING1 / RFU, TRMT61B / Fold change vs veh, TRMT61B / RFU, FUBP3 / Fold change vs veh, FUBP3 / RFU, TP53 / Fold change vs veh, TP53 / RFU, TNKS2 / Fold change vs veh, TNKS2 / RFU, ZFP14 / Fold change vs veh, ZFP14 / RFU, ACTR2 / Fold change vs veh, ACTR2 / RFU, PPP3R1 / Fold change vs veh, PPP3R1 / RFU, PIK3R1 / Fold change vs veh, PIK3R1 / RFU, HNRNPA1 / Fold change vs veh, HNRNPA1 / RFU, RNF170 / Fold change vs veh, RNF170 / RFU, ZNF28 / Fold change vs veh, ZNF28 / RFU, RNGTT / Fold change vs veh, RNGTT / RFU, OGT / Fold change vs veh, OGT / RFU, BRD1 / Fold change vs veh, BRD1 / RFU, MARS / Fold change vs veh, MARS / RFU, ZNF655 / Fold change vs veh, ZNF655 / RFU, FAHD1 / Fold change vs veh, FAHD1 / RFU, BDP1 / Fold change vs veh, BDP1 / RFU, LRRCC1 / Fold change vs veh, LRRCC1 / RFU, ARID1A / Fold change vs veh, ARID1A / RFU, ZNF146 / Fold change vs veh, ZNF146 / RFU, ZNF330 / Fold change vs veh, ZNF330 / RFU, GPN3 / Fold change vs veh, GPN3 / RFU, C9orf123 / Fold change vs veh, C9orf123 / RFU, N4BP2L2 / Fold change vs veh, N4BP2L2 / RFU, ARFIP1 / Fold change vs veh, ARFIP1 / RFU, FAM179B / Fold change vs veh, FAM179B / RFU, BCL10 / Fold change vs veh, BCL10 / RFU, UHRF1BP1L / Fold change vs veh, UHRF1BP1L / RFU, BET1 / Fold change vs veh, BET1 / RFU, CNOT2 / Fold change vs veh, CNOT2 / RFU, ZNF268 / Fold change vs veh, ZNF268 / Fold change vs veh, ZNF507 / RFU, DGCR2 / Fold change vs veh, DGCR2 / RFU, WDSUB1 / Fold change vs veh, WDSUB1 / Fold change vs veh, HSP90B1 /// MIR3652 / RFU, ADSS / Fold change vs veh, ADSS / RFU, GK / Fold change vs veh, GK / RFU, ZNF148 / Fold change vs veh, ZNF148 / RFU, TAF9 / Fold change vs veh, TAF9 / RFU, SLC1A5 / Fold change vs veh, SLC1A5 / RFU, SLMO2 / Fold change vs veh, SLMO2 / RFU, ABCC4 / Fold change vs veh, ABCC4 / RFU, LOC101060439 /// RAP1B / Fold change vs veh, LOC101060439 /// RAP1B / RFU, RFX7 / Fold change vs veh, RFX7 / RFU, GTPBP10 / Fold change vs veh, GTPBP10 / RFU, CNEP1R1 / Fold change vs veh, CNEP1R1 / RFU, BIVM-ERCC5 /// ERCC5 / Fold change vs veh, BIVM-ERCC5 /// ERCC5 / RFU, ILF3 / Fold change vs veh, ILF3 / RFU 11762660_at / Fold change /veh 11762660_at / RFU VCAN (11757783_s_at) / Fold change /veh VCAN (11757783_s_at) / RFU DDX43 (11728927_at) / Fold change /veh DDX43 (11728927_at) / RFU KRT8 (11758188_x_at) / Fold change /veh KRT8 (11758188_x_at) / RFU NKD1 (11759106_at) / Fold change /veh NKD1 (11759106_at) / RFU SRD5A1 (11742802_a_at) / Fold change /veh SRD5A1 (11742802_a_at) / RFU TPSAB1 /// TPSB2 (11721975_s_at) / Fold change /veh TPSAB1 /// TPSB2 (11721975_s_at) / RFU GSTM3 (11746129_a_at) / Fold change /veh GSTM3 (11746129_a_at) / RFU IL23R (11737362_x_at) / Fold change /veh IL23R (11737362_x_at) / RFU TMEM51 (11727254_a_at) / Fold change /veh TMEM51 (11727254_a_at) / RFU PIWIL2 (11732686_x_at) / Fold change /veh PIWIL2 (11732686_x_at) / RFU ORM1 (11744905_x_at) / Fold change /veh ORM1 (11744905_x_at) / RFU CCDC152 (11743942_at) / Fold change /veh CCDC152 (11743942_at) / RFU ECM1 (11717891_a_at) / Fold change /veh ECM1 (11717891_a_at) / RFU IL23R (11748794_a_at) / Fold change /veh IL23R (11748794_a_at) / RFU TNFAIP8L3 (11732012_x_at) / Fold change /veh TNFAIP8L3 (11732012_x_at) / RFU MBOAT4 (11741988_at) / Fold change /veh MBOAT4 (11741988_at) / RFU 11764193_at / Fold change /veh 11764193_at / RFU TMEM53 (11763286_at) / Fold change /veh TMEM53 (11763286_at) / RFU MAGEB2 (11727129_at) / Fold change /veh MAGEB2 (11727129_at) / RFU TMEM200A (11744735_a_at) / Fold change /veh TMEM200A (11744735_a_at) / RFU CCDC152 (11751479_a_at) / Fold change /veh CCDC152 (11751479_a_at) / RFU FAM211A (11726209_a_at) / Fold change /veh FAM211A (11726209_a_at) / RFU RGS16 (11746705_a_at) / Fold change /veh RGS16 (11746705_a_at) / RFU VCAN (11755009_s_at) / Fold change /veh VCAN (11755009_s_at) / RFU RHOB (11743442_s_at) / Fold change /veh RHOB (11743442_s_at) / RFU RGS16 (11720943_a_at) / Fold change /veh RGS16 (11720943_a_at) / RFU RGS16 (11720944_at) / Fold change /veh RGS16 (11720944_at) / RFU, VPS4B / Fold change vs veh, VPS4B / RFU, CREB1 / Fold change vs veh, CREB1 / RFU, DNAJC13 / Fold change vs veh, DNAJC13 / RFU, GNAQ / Fold change vs veh, GNAQ / RFU, CDK5R1 / Fold change vs veh, CDK5R1 / RFU, ZRANB3 / Fold change vs veh, ZRANB3 / RFU, CUL4A / Fold change vs veh, CUL4A / RFU, CCNY / Fold change vs veh, CCNY / RFU, UFL1 / Fold change vs veh, UFL1 / RFU, COG3 / Fold change vs veh, COG3 / RFU, DIAPH2 / Fold change vs veh, DIAPH2 / RFU, SKA2 / Fold change vs veh, SKA2 / RFU, AFF3 / Fold change vs veh, AFF3 / RFU, LMF1 / Fold change vs veh, LMF1 / RFU, IPO11 / Fold change vs veh, IPO11 / RFU, DFFB / Fold change vs veh, DFFB / RFU, FOXP1 / Fold change vs veh, FOXP1 / RFU, CARD8 / Fold change vs veh, CARD8 / RFU, STRN3 / Fold change vs veh, STRN3 / RFU, ADK / Fold change vs veh, ADK / RFU, RASSF2 / Fold change vs veh, RASSF2 / RFU, WIPF1 / Fold change vs veh, WIPF1 / RFU, LARP1B / Fold change vs veh, LARP1B / RFU, RASA1 / Fold change vs veh, RASA1 / RFU, RB1 / Fold change vs veh, RB1 / RFU, PPFIA1 / Fold change vs veh, PPFIA1 / RFU, MAT2A / Fold change vs veh, MAT2A / RFU, CCT5 / Fold change vs veh, CCT5 / RFU, WDR92 / Fold change vs veh, WDR92 / RFU, CUX1 / Fold change vs veh, CUX1 / RFU, TTC7A / Fold change vs veh, TTC7A / RFU, TMEM135 / Fold change vs veh, TMEM135 / RFU, DEPTOR / Fold change vs veh, DEPTOR / RFU, CPM / Fold change vs veh, CPM / RFU, DNAJB6 / Fold change vs veh, DNAJB6 / RFU, CACNA2D3 / Fold change vs veh, CACNA2D3 / RFU, DTX4 / Fold change vs veh, DTX4 / RFU, TFCP2 / Fold change vs veh, TFCP2 / RFU, GMCL1 /// GMCL1P1 / Fold change vs veh, GMCL1 /// GMCL1P1 / RFU, AEBP2 / Fold change vs veh, AEBP2 / RFU, SNHG1 /// SNORD22 /// SNORD25 /// SNORD26 /// SNORD27 /// SNORD28 /// SNORD29 /// SNORD31 / Fold change vs veh, SNHG1 /// SNORD22 /// SNORD25 /// SNORD26 /// SNORD27 /// SNORD28 /// SNORD29 /// SNORD31 / Fold change (Aza/veh), C12orf56 (ProbeSet 11735607_a_at) / Fold change (ACY-1035/veh), C12orf56 (ProbeSet 11735607_a_at) / Fold change (Aza/veh), FGFR1OP (ProbeSet 11751329_s_at) / Fold change (ACY-1035/veh), FGFR1OP (ProbeSet 11751329_s_at) / Fold change (Aza/veh), VPS36 (ProbeSet 11739960_a_at) / Fold change (ACY-1035/veh), VPS36 (ProbeSet 11739960_a_at) / RFU SYPL1 (11715823_x_at) / Fold change /veh SYPL1 (11715823_x_at) / RFU IGFBP7 (11715501_s_at) / Fold change /veh IGFBP7 (11715501_s_at) / RFU REEP3 (11722064_at) / Fold change /veh REEP3 (11722064_at) / RFU IGLL1 (11728026_x_at) / Fold change /veh IGLL1 (11728026_x_at): dose or concentration left out as unconfirmed. The class given is cell-based, human.

Each structure is given as a SMILES string.

For the compound `Nc1ccc(-c2cccs2)cc1NC(=O)c1ccc2c(c1)cc(C1CC1)n2CCN1CCOCC1` [ACY-1035], the “RFU, CUX1” value is 235.11 RFU.
